# Assays:
# [1] = tested on: HL-60 (AML); experiment: Methylcellulose clonogenic assay; type: cell-based; settings: HL-60, 100 μM
# Procedure: (§1) The antileukemic activity of compound 6 against clonogenic tumor cells was examined using a methylcellulose colony assay system (Uckun, F. M., et al., J. Exp. Med. 163: 347-368, 1986; Messinger, Y., et al., Clin Cancer Res. 4: 165-70, 1998). In brief, cells (10^5/ml in RPMI-10% FBS) were treated overnight at 37° C. with compound 6 at varying concentrations. After treatment, cells were washed twice, plated at 10^4 or 10^5 cells/ml in RPMI-10% FMS-0.9% methylcellulose in Petri dishes, and cultured for 7 days at 37° C. in a humidified 5% CO2 incubator. Subsequently, leukemic cell (or tumor cell) colonies were enumerated using an inverted phase-contrast microscope. The percent inhibition of colony formation was calculated using the following formula:
# (§2) % Inhibition=1−mean number of colonies in test culture×100 mean number of colonies in control culture
# [2] = tested on: SQ20B (Squamous Carcinoma); experiment: Methylcellulose clonogenic assay; type: cell-based
# Procedure: as §1, §2
# [3] = tested on: BT20 (Breast Cancer); experiment: Methylcellulose clonogenic assay; type: cell-based
# Procedure: as §1, §2
# [4] = tested on: RAMOS (B-ALL); experiment: Methylcellulose clonogenic assay; type: cell-based
# Procedure: as §1, §2
# [5] = tested on: MOLT-3 (T-ALL); experiment: Methylcellulose clonogenic assay; type: cell-based; settings: MOLT-3, 100 μM
# Procedure: as §1, §2
# [6] = tested on: M24-MET (Melanoma); experiment: Methylcellulose clonogenic assay; type: cell-based
# Procedure: as §1, §2
# [7] = tested on: skh-1 mice; experiment: Chronic UVB-induced skin tumorigenesis; type: in vivo, mouse
# Procedure: Female, 6-7 weeks old, hairless albino mice (skh-1) were purchased from Charles River Laboratories (Wilmington, Mass.) and were housed in a controlled environment (12-h light/12-h dark photo period, 22±1° C., 60±10% relative humidity), which is fully accredited by the USDA (United States Department of Agriculture). Animals were caged in groups of five in a pathogen free environment in accordance with the rules and regulations of U.S. Animal Welfare Act, and National Institutes of Health (NIH). All mice were housed in microisolator cages (Lab Products, Inc., N.J.) containing autoclaved bedding. The mice were allowed free access to autoclaved pellet food and tap water throughout the experiments. Animal care and the experimental procedures were carried out in agreement with institutional guidelines.
# Ultraviolet lamps (8-FSX24T12/HO/UVB) that emit light predominantly in the UVB range (280-320 nm) were obtained from National Biological Corporation, Twinsburg, Ohio. The irradiance of the UVB lamps was determined before each irradiation, using a UVB meter (model—500C obtained from National Biological Corporation, Twinsburg, Ohio). For exposure to UV light, three mice were placed in an open 28 cm×10 cm plastic box that was divided in three compartments (one mouse per compartment). The plastic box was placed in the center, under the bank of UVB light, and the mice were irradiated with 35 mj/cm^2 dose of UVB. The exposure time for a 35 mj/cm ^2 dose of UVB varied from 30-34 s. The distance between UVB lamps and the surface receiving irradiation was 20 cm.
# The mice were treated topically with a single application of Compound 6 (1.0 mg/cm^2, dissolved in DMSO) over a 2 cm^2 area on the dorsal surface before each UVB exposure. After 15 min. following Compound 6 application the mice were irradiated with UVB (35 mj/cm). UVB exposure of mice was performed three times a week for a total of 20 weeks. Control mice were treated with vehicle prior to UVB light exposure.
# The skin thickness of mice, and papillary skin lesions greater than 1 mm in diameter were measured and recorded twice every week and the average of the two measurements was used in the calculations. Skin thickness, lesion number and lesion diameter measurements were limited only to the 2 cm^2 area on the dorsal surface of mice that was being treated either with compound 6 or vehicle. Lesion volume were calculated using the formula: […]
# At the end of the study, 5-19 lesions from each group were randomly biopsied, and fixed in 10% buffered formalin. Formalin-fixed specimens were embedded in paraffin blocks, sectioned at 4 μm thickness, and stained in haematoxylin-eosin. The pathological evaluation of skin sections was performed by a Certified Veterinary Pathologist who was unaware of the identity of specimens.
# The pathological classification of tumors was as follows: 1) Cutaneous papilloma: a tumor papillomatous growth of acanthotic epidermis without invasive growth of tumor cells into the dermis. […] 2) Actinic keratosis: a hyperplastic, orthokeratotic, mildly to moderately acanthotic epithelium. 3) Florid actinic keratosis: actinic keratosis with mild to moderately acanthotic ridges extending into the superficial dermis, resembling superficially invasive squamous cell carcinoma. 4) Keratoacanthoma: a papillary growth with a central keratin filled crater surrounded by hyperplastic, acanthotic stratified squamous epithelium. The leading edge of the tumor pushes into the underlying dermis. 5) Squamous cell carcinoma (SCC): a tumor with atypical cell nests invading into superficial and mid dermis.
# [8] = group C, 1 mg/cm^2 topical, 20 weeks
# [9] = group C, 1 mg/cm^2 topical, 20 weeks, mean ± SEM
compound,measurement,setting,value
"COc1cc2ncnc(Nc3ccc(O)cc3)c2cc1OC [WHI-P131, 4-(4′-hydroxyl-phenyl)-amino-6,7-dimethoxyquinazoline]",Mean No. of Colonies/10^5 Cells,[1],"1 (1,1)"
same,inhibition at 100 µM,[1]; Homo sapiens,> 99.9%
same,Mean No. of Colonies/10^5 Cells,[2]; 30 μM,"838 (600, 1076)"
same,inhibition at 30 µM,[2]; Homo sapiens,0%
same,Mean No. of Colonies/10^5 Cells,"[3]; BT20, 10 μM","3298 (2940, 3656)"
same,Mean No. of Colonies/10^5 Cells,"[3]; BT20, 100 μM","2190 (1632, 2748)"
same,inhibition at 10 µM,"[3]; Homo sapiens, BT-20, BT20, 10 μM",0%
same,inhibition at 100 µM,"[3]; Homo sapiens, BT-20, BT20, 100 μM",18.2%
same,Mean No. of Colonies/10^5 Cells,[4]; 30 μM,"2 (0, 4)"
same,inhibition at 30 µM,[4]; Homo sapiens,99.8%
same,inhibition at 100 µM,[5]; Homo sapiens,> 99.9%
same,Mean No. of Colonies/10^5 Cells,[5],"1 (1, 1)"
same,Mean No. of Colonies/10^5 Cells,[6]; 0.3 μM,"312 (238, 386)"
same,Mean No. of Colonies/10^5 Cells,[6]; 1 μM,"287 (157, 418)"
same,Mean No. of Colonies/10^5 Cells,[6]; 3 μM,"390 (280, 500)"
same,Mean No. of Colonies/10^5 Cells,[6]; 10 μM,"301 (249, 353)"
same,Mean No. of Colonies/10^5 Cells,[6]; 30 μM,"599 (534, 664)"
same,inhibition at 0.3 µM,"[6]; Homo sapiens, M24met, 0.3 μM",0%
same,inhibition at 1 µM,"[6]; Homo sapiens, M24met, 1 μM",0%
same,inhibition at 3 µM,"[6]; Homo sapiens, M24met, 3 μM",0%
same,inhibition at 10 µM,"[6]; Homo sapiens, M24met, 10 μM",0%
same,inhibition at 30 µM,"[6]; Homo sapiens, M24met, 30 μM",0%
same,inhibition of occurrence of SCC/Florid actinic keratosis,"[7]; group C vs group B, 20 weeks",about 23%
same,No. of lesions/mouse,"[7]; group C, 1 mg/cm^2 topical before each UVB 35 mj/cm^2, 20 weeks, mean ± SEM",1.6 ± 0.4
same,Percentage of mice with Actinic keratosis,[7]; [8],53 Percentage
same,Percentage of mice with Keratoacanthomas,[7]; [8],0 Percentage
same,Percentage of mice with Papilloma,[7]; [8],7 Percentage
same,Percentage of mice with SCC/Florid actinic keratosis,[7]; [8],57 Percentage
same,Avg. Vol/lesion,[7]; [9],1.9 ± 0.5
same,Skin lesion volume/mouse,[7]; [9],3.2 ± 0.9
same,onset of lesions (first lesion observed after),"[7]; weeks of UVB-irradiation, vehicle group around 10 weeks",14 weeks

# Reference: patent US6469013B2, “Therapeutic compounds” (Parker Hughes Institute, priority 1998, dated 2002)
